Test results taken from US20250066286A1, “COMPOSITIONS OF (Z)-ENDOXIFEN AND METHODS OF ENRICHMENT THEREOF” (Atossa Therapeutics, Inc., priority 2022, published 2025).
Like-named read-outs stand apart in the source and are kept apart here. Values belong to the molecule of their own block, whether it stands above or below them.

How the values were obtained:
Assay type in all cases: physicochemical
[1] = Storage stability of polymorphic forms at room temperature in a sealed vial (XRPD time course)
Protocol: Form I samples were collected for XR-PD analysis following 0, 7, and 42 days of storage, the results of which are shown in FIG. 10.
The stability of polymorphic Form IV was evaluated over 7 days of storage at room temperature in a sealed vial. Portions of the Form IV samples were collected for XRPD analysis following 0 (Form IV), 3 (Form IV-3D3-storage), and 7 days (Form IV-7D3-storage) of storage, the results of which are shown in FIG. 14.
The stability of polymorphic Form IV was also evaluated following crystallization from a room temperature 2-propanol/THF 95/5 (v/v) solvent system containing 40 mg/ml (Z)-endoxifen. XPRD was collected immediately after recovery and following 15 days storage at room temperature in a sealed vial. FIG. 15 provides the resultant XRPD patterns following 15 days storage (Form IV-2PR/THF-15D-storage) and 0 days storage (Form IV-2PR/THF-0D-storage), as well as an XRPD spectrum of Form IV (Form IV) obtained from 2-propanol recrystallization.
Since the room temperature evaporation in acetone yielded a mixture of polymorphic Form I and Form IV XRPD patterns with a very intense unassigned signal at 16.1° 2θ, the sample was re-measured following 7 days storage in a sealed vial. From top to bottom, FIG. 16 provides XRPD patterns of the acetone-generated polymorphs following 7 (EVRT-ACT-7D-storage) and 0 days of storage (EVRT-ACT-0D-storage), a Form IV spectrum (Form IV), and a Form I (Form I) spectrum, respectively.
Form XVII was further assessed after 3 days storage in a sealed vial at room temperature.
Form XVIII was further reassessed by XRPD following 3 and 7 days storage at room temperature in a sealed vial. The data from these analyses are summarized in FIG. 24, which (from top to bottom) provides the sample following 7 days storage (Form XVIII-7D-storage), the sample following 3 days storage (Form XVIII-3D-storage), and the sample immediately following crystallization (Form XVIII).
Form XIX room temperature stability was evaluated with XRPD. XRPD of a Form XIX sample immediately following crystallization (Form XIX) and following 7 days of storage (Form XIX-7D-storage) are shown in FIG. 26.
The stability of polymorphic Form V was over 10 days of storage at room temperature in a sealed vial. XR-PD was performed following 0, 3, and 10 days storage.
To evaluate Form VI stability, XRPD spectra of a Form VI sample were collected following 0, 3, and 14 days of room temperature storage in a sealed vial. The resulting XRPD patterns of the sample following 0 (Form VI), 3 (Form VI-3D-storage), and 14 days storage (Form VI-14D-storage) are shown in FIG. 30.
The stability of polymorphic Form VII was evaluated over 7 days of storage at room temperature in a sealed vial. Portions of the Form VII samples were collected for XRPD analysis over 7 days of storage, the results of which are shown in FIG. 32.
Form VIII stability over 7 days storage in a sealed vial at room temperature was evaluated with XRPD.
The stability of Form IX generated by precipitation from an ethyl acetate/heptane solvent system (Form IX Recrystallization (1)) was evaluated over 7 days of storage at room temperature. Portions of the Form IX sample were collected following 0 and 7 days of storage in a sealed vial and analyzed by XRPD analysis to identify possible changes in the polymorph.
Form IX stability was separately characterized for crystals generated through the addition of (Z)-endoxifen saturated ethyl acetate to heptane (Form IX Recrystallization (2)), which yielded higher crystallinity Form IX than was afforded by heptane addition to (Z)-endoxifen saturated ethyl acetate.
Form IX stability was further evaluated for crystals generated by precipitation from an acetone/butyl methyl ether (acetone/BME) solvent/antisolvent mixture (Form IX Recrystallization (4)). Portions of the Form IX sample were collected following 0 and 5 days of storage in a sealed vial at room temperature and compared to reference XRPD patterns of Forms VII and IX. […]

[2] = Mechanical stability: grinding and kneading by ball milling (XRPD); conditions: for XRPD pattern after mechanical grinding: 10 minutes ball milling at 30 Hz; for XRPD pattern after kneading: 10 minutes ball milling at 30 Hz with catalytic 2-propanol (2 μl)
Protocol: Stability tests were performed on mixtures of Form I and Form IV; Form I and Form VII; and Form I, Form IV, and Form VII. In a first mechanical stability test, the polymorphs were analyzed by XRPD following 10 minutes of grinding by ball milling at 30 Hz. In a second mechanical stability test, the polymorphs were analyzed by XRPD following 10 minutes of kneading by ball milling at 30 Hz in the presence of a catalytic amount of 2-propanol (2 μl).

[3] = Thermogravimetric analysis (TGA), degradation
Protocol: The TGA profile of Form I is shown in the top panel of FIG. 12 with the heat-flow profile in the middle panel of FIG. 12, and the first derivative of the TGA profile in the bottom pane of FIG. 12. […] A weight loss of 0.2% was detected between 140° C. and 180° C., potentially ascribable to solvent release. Degradation of Form I took place above 270° C. The heat-flow profile included two main peaks around 50° C. and 160° C. The first derivative of the TGA profile indicated a greatest decline in the TGA profile occurred around 400° C., and that weight loss occurred around 320° C.

[4] = Stability at various temperatures and relative humidities, seven days (XRPD); conditions: 7 days
Protocol: The stabilities of the polymorphs were also assessed at various temperatures and relative humidities. These analyses were performed by storing 20 mg of polymorph samples for seven days at: (1) 25° C. and 100% relative humidity, (2) 40° C. and 75% relative humidity, (3) 25° C. and 60% relative humidity, and (4) at 60° C. and 75% relative humidity. XRPD was collected on the samples following these incubations and compared to XRPD of the samples prior to storage.

[5] = 7 days, room temperature, sealed vial
[6] = 25° C. and 100% relative humidity
[7] = 40° C. and 75% relative humidity
[8] = 3 days, room temperature, sealed vial

- Room temperature stability ([1]; duration not given): limited room temperature stabilities
Structure (SMILES): CC/C(=C(\c1ccc(O)cc1)c1ccc(OCCNC)cc1)c1ccccc1 [Form XV, (Z)-endoxifen]

- XRPD change on storage ([1]; 4 days, room temperature, sealed vial): conversion of Form XIII to Form XII
- XRPD change on storage ([1]; 5 days total, room temperature, sealed vial): conversion to only Form XII
Structure (SMILES): CC/C(=C(\c1ccc(O)cc1)c1ccc(OCCNC)cc1)c1ccccc1 [mixture of Form XII and Form XIII, (Z)-endoxifen]

Structure (SMILES): CC/C(=C(\c1ccc(O)cc1)c1ccc(OCCNC)cc1)c1ccccc1 [first mixture of Form I and Form VII, (Z)-endoxifen]
- XRPD pattern after mechanical grinding [2]: amorphous (Z)-endoxifen with signals ascribable to Form I and Form VII

- XRPD change on storage ([1]; 2 days, room temperature, sealed vial): stable under ambient conditions
Structure (SMILES): CC/C(=C(\c1ccc(O)cc1)c1ccc(OCCNC)cc1)c1ccccc1 [Form XII, (Z)-endoxifen]

- XRPD change on storage [1, 5]: stable under ambient conditions
- Degradation temperature (TGA) [3]: above 270 °C
Structure (SMILES): CC/C(=C(\c1ccc(O)cc1)c1ccc(OCCNC)cc1)c1ccccc1 [Form VII, (Z)-endoxifen]
- XRPD pattern after storage [4, 6]: no significant change to the XRPD pattern
- XRPD pattern after storage [4, 7]: no significant change to the XRPD pattern

- XRPD pattern after storage ([4]; 25° C./60% RH): mixture of Form I, Form IV, and Form VII
- XRPD pattern after storage ([4]; 60° C./75% RH): mixture of Form I and Form VII
Structure (SMILES): CC/C(=C(\c1ccc(O)cc1)c1ccc(OCCNC)cc1)c1ccccc1 [mixture of Form I, Form IV, and Form VII, (Z)-endoxifen]
- XRPD pattern after mechanical grinding [2]: Form I with a slightly lowered degree of crystallinity
- XRPD pattern after kneading [2]: Form I with a mild signal at 4.8° 20 ascribable to Form IV

- XRPD change on storage [1, 8]: partial conversion to Forms I and VII
- XRPD change on storage [1, 5]: partial conversion to Forms I and VII
Structure (SMILES): CC/C(=C(\c1ccc(O)cc1)c1ccc(OCCNC)cc1)c1ccccc1 [Form XIV, (Z)-endoxifen]

Structure (SMILES): CC/C(=C(\c1ccc(O)cc1)c1ccc(OCCNC)cc1)c1ccccc1 [Form XVII, (Z)-endoxifen]
- XRPD change on storage [1, 8]: complete conversion of Form XVII (Form XVII) into Form I

- XRPD change on storage [1, 5]: near complete conversion to Form XI
Structure (SMILES): CC/C(=C(\c1ccc(O)cc1)c1ccc(OCCNC)cc1)c1ccccc1 [Form X, (Z)-endoxifen]

- XRPD change on storage ([1]; 14 days, room temperature, sealed vial): stable under ambient conditions
Structure (SMILES): CC/C(=C(\c1ccc(O)cc1)c1ccc(OCCNC)cc1)c1ccccc1 [Form VI, (Z)-endoxifen]

- XRPD change on storage ([1]; 0, 7, and 42 days of storage): stable under ambient conditions
- Degradation temperature (TGA) [3]: above 270 °C
- Degradation temperature (TGA) ([3]; sample from scaled-up crystallization): 270 °C
Structure (SMILES): CC/C(=C(\c1ccc(O)cc1)c1ccc(OCCNC)cc1)c1ccccc1 [Form I, (Z)-endoxifen]
- XRPD pattern after storage [4, 6]: did not induce detectable changes in the Form I XRPD
- XRPD pattern after storage [4, 7]: no significant changes to the XRPD pattern
- XRPD pattern after mechanical grinding [2]: converted portions of Form I to amorphous endoxifen
- XRPD pattern after kneading [2]: converted portions of Form I to amorphous endoxifen

- XRPD change on storage [1, 5]: partial amorphization
Structure (SMILES): CC/C(=C(\c1ccc(O)cc1)c1ccc(OCCNC)cc1)c1ccccc1 [Form XVIII, (Z)-endoxifen]

- XRPD change on storage [1, 5]: stable under ambient conditions
Structure (SMILES): CC/C(=C(\c1ccc(O)cc1)c1ccc(OCCNC)cc1)c1ccccc1 [Form XIX, (Z)-endoxifen]

- XRPD change on storage [1, 8]: converted almost completely to Form VI
- XRPD change on storage ([1]; 10 days, room temperature, sealed vial): completely to Form VI
Structure (SMILES): CC/C(=C(\c1ccc(O)cc1)c1ccc(OCCNC)cc1)c1ccccc1 [Form V, (Z)-endoxifen]

- XRPD change on storage [1, 5]: No significant changes were detected
Structure (SMILES): CC/C(=C(\c1ccc(O)cc1)c1ccc(OCCNC)cc1)c1ccccc1 [Forms I and IV polymorphic mixture, (Z)-endoxifen]

- XRPD change on storage [1, 5]: no significant difference
Structure (SMILES): CC/C(=C(\c1ccc(O)cc1)c1ccc(OCCNC)cc1)c1ccccc1 [Form VIII, (Z)-endoxifen]

Structure (SMILES): CC/C(=C(\c1ccc(O)cc1)c1ccc(OCCNC)cc1)c1ccccc1 [second mixture of Form I and Form VII, (Z)-endoxifen]
- XRPD pattern after mechanical grinding [2]: Form I and Form VII with slightly lowered crystallinity

- XRPD change on storage ([1]; 7 days, room temperature, sealed vial, Form IX Recrystallization (1), ethyl acetate/heptane): stable under ambient conditions
- Degradation temperature (TGA) [3]: above 270 °C
Structure (SMILES): CC/C(=C(\c1ccc(O)cc1)c1ccc(OCCNC)cc1)c1ccccc1 [Form IX, (Z)-endoxifen]
- XRPD change on storage ([1]; 5 days, room temperature, sealed vial, Form IX from acetone/butyl methyl ether (Form IX Recrystallization (4))): new signal at 9.1° 2θ, possibly indicating the presence of Form VII as well as partial amorphization of the sample
- XRPD change on storage ([1]; 7 days, room temperature, sealed vial, Form IX Recrystallization (2)): weak XRPD signals ascribable to small amounts of Form I
- XRPD change on storage ([1]; 8 days, room temperature, sealed vial, Form IX from room temperature ethyl acetate/heptane 50/50 (v/v) slurries, unassigned signals at 10.1, 11.7, 16.8, 18.5, 19.4, 23.1): these peaks persisted following 8 days of storage
- XRPD change on storage ([1]; 13 days, room temperature, sealed vial, Form IX Recrystallization (2)): weak XRPD signals ascribable to small amounts of Form I

- XRPD pattern after storage ([4]; 25° C./60% RH): mixture of Form I and Form IV
- XRPD pattern after storage ([4]; 60° C./75% RH): XRPD pattern of Form I
- XRPD pattern after mechanical grinding [2]: Form I with traces of Form IV
Structure (SMILES): CC/C(=C(\c1ccc(O)cc1)c1ccc(OCCNC)cc1)c1ccccc1 [mixture of Form I and Form IV, (Z)-endoxifen]
- XRPD pattern after kneading [2]: Form I with a signal at 4.8° 20 ascribable to Form IV

- XRPD change on storage ([1]; 18 days, room temperature): stable under ambient conditions
Structure (SMILES): CC/C(=C(\c1ccc(O)cc1)c1ccc(OCCNC)cc1)c1ccccc1 [Form XI, (Z)-endoxifen]
